According to ChEMBL document CHEMBL3046188, “Prodrug-oriented molecular design of neonicotinoids: preparation of imidacloprid-related 5,5-dimethoxy-1,3-diazacyclohexane derivatives and their insecticidal activity” (2005):

What was measured:
Type in all cases: functional
Periplaneta americana [1] = assay: Insecticidal activity against Periplaneta americana (American cockroach) administered through injection into abdomen measured 24 hr post compound injection
Myzus persicae [2] = assay: Insecticidal activity against Myzus persicae (green peach aphid) reared on compound pre-treated […] plants assessed as insect mortality rate at 4 ppm measured 7 days post compound treatment
Myzus persicae [3] = assay: Insecticidal activity against Myzus persicae (green peach aphid) reared on compound pre-treated […] plants assessed as insect mortality rate at 0.16 ppm measured 7 days post compound treatment
Myzus persicae [4] = assay: Insecticidal activity against Myzus persicae (green peach aphid) reared on compound pre-treated […] plants assessed as insect mortality rate at 20 ppm measured 7 days post compound treatment
Periplaneta americana [5] = assay: Neuroblocking potency in Periplaneta americana (American cockroach) abdominal fifth and sixth ganglia assessed as neuroblocking concentration
Myzus persicae [6] = assay: Insecticidal activity against Myzus persicae (green peach aphid) reared on compound pre-treated […] plants assessed as insect mortality rate at 0.8 ppm measured 7 days post compound treatment
Periplaneta americana [7] = assay: Insecticidal activity against Periplaneta americana (American cockroach) administered through injection into abdomen co-injceted with 50 ug piperonyl butoxide and 50 ug NIA 16388 measured 24 hr post compound injection
Myzus persicae [8] = assay: Insecticidal activity against Myzus persicae (green peach aphid) reared on compound pre-treated […] plants assessed as insect mortality rate at 100 ppm measured 7 days post compound treatment

| Structure (SMILES) | MLD (Periplaneta americana [1]) [µmol] | mortality at 4 ppm (Myzus persicae [2]) [%] | mortality at 0.16 ppm (Myzus persicae [3]) [%] | mortality at 20 ppm (Myzus persicae [4]) [%] | Activity (Periplaneta americana [5]) [mM] | mortality at 0.8 ppm (Myzus persicae [6]) [%] | MLD (Periplaneta americana [7]) [µmol] | mortality at 100 ppm (Myzus persicae [8]) [%] |
| --- | --- | --- | --- | --- | --- | --- | --- | --- |
| COC1(OC)CN/C(=N\C#N)N(Cc2ccc(Cl)nc2)C1 | >0.4 | 60 | 20 | 100 | 0.62 | 60 | >0.4 |  |
| COC1(OC)CN/C(=C\[N+](=O)[O-])N(Cc2ccc(Cl)nc2)C1 | 0.35 | 60 |  | 90 | 1 | 0 | >0.44 |  |
| COC1(OC)CN(C)/C(=N\[N+](=O)[O-])N(Cc2ccc(Cl)nc2)C1 | 0.36 | 90 | 30 | 90 | >0.56 | 60 | >0.36 |  |
| COC1(OC)CN/C(=N\[N+](=O)[O-])N(Cc2ccc(Cl)nc2)C1 | 0.19 | 100 | 60 | 100 | 0.56 | 90 | >0.38 |  |
| COC1(OC)CN/C(=C\[N+](=O)[O-])N(CC2CCOC2)C1 (stereo not drawn) | >0.36 | 0 |  | 60 | >0.54 |  | >0.36 |  |
| N/C(=N\[N+](=O)[O-])NCc1ccc(Cl)nc1 | >0.4 |  |  |  | >0.65 |  | >0.4 | 60 |
| CC1(C)CN/C(=N\[N+](=O)[O-])N(Cc2ccc(Cl)nc2)C1 |  | 0 |  | 60 |  |  |  |  |
| COC1CN/C(=N\[N+](=O)[O-])N(Cc2ccc(Cl)nc2)C1 (stereo not drawn) |  | 0 |  | 40 |  |  |  |  |
| COC1(OC)CN/C(=N\[N+](=O)[O-])N(Cc2cnc(Cl)s2)C1 | 0.24 | 100 | 50 | 100 | >0.56 | 60 | >0.34 |  |
| COC1(OC)CN(C)/C(=N\[N+](=O)[O-])N(Cc2cnc(Cl)s2)C1 | 0.36 | 100 | 40 | 100 | >0.54 | 60 | >0.36 |  |
| O=[N+]([O-])/N=C1\NCCCN1Cc1ccc(Cl)nc1 | 9.6e-05 | 100 | 90 | 100 | 0.0045 | 100 | 0.015 |  |
| C/N=C(\NCc1ccc(Cl)nc1)N[N+](=O)[O-] | 0.0051 | 100 | 100 | 100 | 0.0085 | 100 | 0.0051 |  |
